{"source": "patent US20070179143A1", "about": "(priority 2003, published 2007)", "key": {"SK-OV-3": {"tested_on": "SK-OV-3", "test": "Cytotoxicity test to cancer cell lines (SRB method), SK-OV-3", "assay_type": "cell-based", "conditions": "Homo sapiens, SK-OV-3, 48 h, read-out: Cytotoxicity ED50 SK-OV-3"}, "SK-MEL-2": {"tested_on": "SK-MEL-2", "test": "Cytotoxicity test to cancer cell lines (SRB method), SK-MEL-2", "assay_type": "cell-based", "conditions": "Homo sapiens, SK-MEL-2, 48 h, read-out: Cytotoxicity ED50 SK-MEL-2"}, "[1]": {"test": "Body weight change of NCI-H460 xenografted nude mice", "assay_type": "in vivo, BALB/c nude mouse"}, "A549": {"tested_on": "A549", "test": "Cytotoxicity test to cancer cell lines (SRB method), A549", "conditions": "Homo sapiens, A549, 48 h, read-out: Cytotoxicity ED50 A549", "experimental": "(§4) Cytotoxicity to A549 (Korea Research Institute of Chemical Technology), SK-OV-3 (Korea Research Institute of Chemical Technology), SK-MEL-2 (Korea Research Institute of Chemical Technology), HCT-15 (Korea Research Institute of Chemical Technology) and MCF7 (Korean Cell Line Bank, Seoul National University School of medicine) cells was measured by Sulforhodamin-B (SRB) method (1989, National Cancer Institute (NCI)) which was developed for the measurement of in vitro anticancer activity of a drug. Cells were separated using 0.25% trypsin-EDTA solution, leading to the preparation of a cell suspension by 5×10^318 2×10^4 cells/well. Then, the suspension was distributed into a 96 well plate by 100 μl/well, which was cultured in a 37° C., 5% CO2 incubator for 24 hours. Compounds prepared in examples of the present invention were used as a sample. Precisely, the compound was dissolved in dimethylsulfoxide and diluted with RPMI 1640 medium before being used as a sample. The final concentration of the sample used varied ranging 1 μM˜0.00001 μM. The medium was removed from the 96 well plate and then diluted sample solution was added by 100 μl/well, followed by further culture in a 37° C., 5% CO2 incubator for 48 hours. Tz (time zero) plate was collected from the point of adding the sample. Upon completing the culture, the medium was removed from each well along with Tz plate, then 10% trichloroacetic acid (TCA) was added by 100 μl/well. The plate was left at 4° C. for 1 hour to let cells be fixed on the floor of the plate. After cells were fixed completely, the plate was washed with water 5-6 times to remove the remaining trichloroacetic acid solution completely and moisture was completely dried at room temperature. 0.4% Sulforhodamine-B was dissolved in 1% acetic acid solution to prepare a staining solution. Cells were stained for 30 minutes with a dye added by 100 μl to each well of the completely dried plate. Then, the plate was washed with 1% acetic acid solution 5-6 times to remove sulforhodamine-B remained uncombined with cells. Then, the plate was dried at room temperature. 10 mM Tris solution was added by 100 μ/well thereto to dissolve the dye, and optical density (OD) was measured at 520 nm with a micro plate reader.\n(§5) ED50 (concentration that inhibits cancer cell growth 50%, 5.0% effective dose, nM/ml) of the sample to cancer cell was calculated as follows. OD value at the point of beginning the culture with the sample was determined as Tz (time zero) value. OD value of a well to be cultured without the sample was determined as a control value (C). OD value of a well pretreated with the sample was determined as experimental value (T). After calculating Tz, C and T, cytotoxicity of the sample was measured by the below <Mathematical Formula 1>. T≦Tz, (T−Tz)/(C−Tz)×100 T>Tz, (T−Tz)/Tz×10,0 <Mathematical Formula 1>\n(§6) ED50, the concentration that can inhibit cancer cell growth by 50%, was calculated by using a regression analysis of lotus program based on the degree of cytotoxicity obtained by the <Mathematical Formula 1>."}, "MCF7": {"tested_on": "MCF7", "test": "Cytotoxicity test to cancer cell lines (SRB method), MCF7", "conditions": "read-out: Cytotoxicity ED50 MCF-7, MCF-7, 48 hours", "experimental": "as §4, §5, §6"}, "HCT-15": {"tested_on": "HCT-15", "test": "Cytotoxicity test to cancer cell lines (SRB method), HCT-15", "conditions": "Homo sapiens, HCT-15, 48 h, read-out: Cytotoxicity ED50 HCT15", "experimental": "as §4, §5, §6"}, "[2]": {"tested_on": "human lung cancer cell line NCI-H460", "test": "Inhibiting effect on tumor growth, NCI-H460 xenografted nude mice", "experimental": "Samples for the experiment were stored in a refrigerator all the time. […] The prepared sample is subject to be precipitated, so that tip sonication was performed right before the administration to disperse it well.\n7 week-old female S.P.F. BALB/c nude mice, provided by Charles River Co., Japan, were used as test animals. The test animals were adapted in a Hepa-filter room over a week before the test. The temperature was 21±2° C., humidity was 55±5% and 12-hour light and dark cycle was automatically repeated in that lab. Solid feed (Cheiluedang) was sterilized by radioactive rays and drinking water was also sterilized by autoclave. Feed and water were taken by the animal freely. Cancer cell line used in this experiment was NCI-H460 (human lung tumor cell line) provided by Korea Research Institute of Bioscience and Biotechnology.\nThe tumor cell line, stored in liquid nitrogen, was thawed and cultured in a 37° C., 5% CO2 incubator for a required time. Upon completing the culture, all the cells were recovered and cell concentration of the culture fluid was adjusted using PBS to 3×10^7 cells/ml. The adjusted cell culture solution was injected hypodermically into armpit between right shoulder girdle and chest wall by 0.3 ml per mouse. From the next day of grafting, NCI-H460 xenografted nude mice were administered intraperitoneal everyday with the sample solution by 0.2 ml/20 g of weight, once a day.\nAfter the grafting of tumor cells, the volume of a tumor in each individual was measured in three dimensions by using a vernier caliper, which was represented in the below <Mathematical Formula 2>. Tumor volume=(length×width×height)/2 <Mathematical Formula 2>\nBody weight changes of animal were measured three times a week. Each xenografted nude mouse was sacrificed to separate a tumor, which was then weighed."}, "in vivo": {"test": "in vivo", "conditions": "ICR, mouse, in vivo", "description": "(§1) 5-week-old ICR mice having the weight of 25-35 g (SPF, SLC Co. Japan) were used as test animals. A pair of female and male of the mice was given for the test of each compound. Group T2, T3, T4 and T5 were arranged (10 animals per group) for the test of acute toxicity of the compound prepared in the Example 12. […] Control group (T1) was administered with only a solvent without the compound of the Example 12.\n(§2) For comparison, colchicine was injected in the test animals by the same method as described in the above. The group treated with colchicine was composed of 6 mice.\n(§3) Taxol produced by Bristol Myers Sqibb Co. was also used for comparison, and the injection and the test of acute toxicity were performed by the same method as described in the above."}, "ICR mice": {"tested_on": "ICR mice", "test": "in vivo", "conditions": "for Death Total: ICR mice, 7 days, deaths/animals; for Test Day (Death) 2: deaths on day 2; for Test Day (Death) 5: deaths on day 5; for Test Day (Death) 1: deaths on day 1", "description": "as §1, §2, §3"}, "[3]": {"conditions": "10 mg/kg intraperitoneal once a day"}, "[4]": {"conditions": "10 mg/kg intraperitoneal once a day, Day 14"}, "[5]": {"conditions": "2 mg/kg intraperitoneal once a day"}, "[6]": {"conditions": "2.5 mg/kg intraperitoneal once a day"}}}
{"smiles": "CCOc1cc2c(c(OC)c1OC)-c1ccc(SC)c(=O)cc1[C@@H](NC(=O)c1cccc(CO[N+](=O)[O-])c1F)CC2", "note": "[Example 8, N-[(7S)-3-ethoxy-1,2-dimethoxy-10-methylsulfanyl-9-oxo-5,6,7,9-tetrahydro-benzo[a]heptalen-7-yl]-2-fluoro-3-nitrooxymethyl-benzamide]", "values": [{"measurement": "EC50", "setting": "SK-OV-3", "result": 0.04, "unit": "nM"}, {"measurement": "EC50", "setting": "SK-MEL-2", "result": 0.01, "unit": "nM"}, {"measurement": "Body weight Change Day 1", "setting": "[1]; [3]", "result": "100.0 ± 0.0", "unit": "%"}, {"measurement": "Body weight Change Day 3", "setting": "[1]; [3]", "result": "103.5 ± 2.2", "unit": "%"}, {"measurement": "Body weight Change Day 7", "setting": "[1]; [3]", "result": "99.8 ± 4.3", "unit": "%"}, {"measurement": "Body weight Change Day 9", "setting": "[1]; [3]", "result": "92.3 ± 4.1", "unit": "%"}, {"measurement": "Body weight Change Day 11", "setting": "[1]; [3]", "result": "89.3 ± 3.7", "unit": "%"}, {"measurement": "Body weight Change Day 14", "setting": "[1]; [3]", "result": "89.4 ± 5.3", "unit": "%"}, {"measurement": "decrease of the weight of the mouse", "setting": "[1]; comparing to solvent only or positive control", "result": "about 10%"}, {"measurement": "EC50", "setting": "A549", "result": 0.02, "unit": "nM"}, {"measurement": "EC50", "setting": "MCF7", "result": 0.01, "unit": "nM"}, {"measurement": "EC50", "setting": "HCT-15", "result": 0.03, "unit": "nM"}, {"measurement": "inhibition rate of the tumor volume", "setting": "[2]; 10 mg/kg", "result": 85, "unit": "%"}, {"measurement": "Tumor volume Day 0", "setting": "[2]; 10 mg/kg intraperitoneal once a day, Day 0", "result": "0.0 ± 0.0"}, {"measurement": "Tumor volume Day 4", "setting": "[2]; 10 mg/kg intraperitoneal once a day, Day 4", "result": "18.0 ± 3.7"}, {"measurement": "Tumor volume Day 7", "setting": "[2]; 10 mg/kg intraperitoneal once a day, Day 7", "result": "25.2 ± 12.8"}, {"measurement": "Tumor volume Day 9", "setting": "[2]; 10 mg/kg intraperitoneal once a day, Day 9", "result": "29.6 ± 13.8"}, {"measurement": "Tumor volume Day 11", "setting": "[2]; 10 mg/kg intraperitoneal once a day, Day 11", "result": "35.2 ± 14.0"}, {"measurement": "Tumor Weight Day 14", "setting": "[2]; [4]", "result": "143.4 ± 57.8", "unit": "mg"}, {"measurement": "Tumor volume Day 14", "setting": "[2]; [4]", "result": "44.5 ± 15.0"}, {"measurement": "size and weight of a tumor (in words)", "setting": "[2]; comparing to solvent only (V.C-1, V.C-2) or positive control (taxol, adriamycin)", "result": "remarkably decreased"}]}
{"smiles": "COc1cc2c(c(OC)c1OC)-c1ccc(OC)c(=O)cc1[C@@H](NC(C)=O)CC2", "note": "[Colchicine]", "values": [{"measurement": "EC50", "setting": "SK-OV-3", "result": 18, "unit": "nM"}, {"measurement": "EC50", "setting": "SK-MEL-2", "result": 6, "unit": "nM"}, {"measurement": "LD50 at 7 days", "setting": "in vivo; both", "result": 2, "unit": "mg/kg"}, {"measurement": "Death Total", "setting": "ICR mice; 0.5 mg/kg", "result": "0/6"}, {"measurement": "Death Total", "setting": "ICR mice; 1.0 mg/kg", "result": "0/6"}, {"measurement": "Death Total", "setting": "ICR mice; 2.0 mg/kg", "result": "3/6"}, {"measurement": "Test Day (Death) 3", "setting": "ICR mice; 2.0 mg/kg, deaths on day 3", "result": 1}, {"measurement": "Test Day (Death) 6", "setting": "ICR mice; 2.0 mg/kg, deaths on day 6", "result": 2}, {"measurement": "Death Total", "setting": "ICR mice; 5.0 mg/kg", "result": "5/5"}, {"measurement": "Test Day (Death) 2", "setting": "ICR mice; 5.0 mg/kg", "result": 3}, {"measurement": "Test Day (Death) 4", "setting": "ICR mice; 5.0 mg/kg, deaths on day 4", "result": 1}, {"measurement": "Test Day (Death) 5", "setting": "ICR mice; 5.0 mg/kg", "result": 1}, {"measurement": "EC50", "setting": "A549", "result": 21, "unit": "nM"}, {"measurement": "EC50", "setting": "HCT-15", "result": 9, "unit": "nM"}]}
{"smiles": "COc1cccc2c1C(=O)c1c(O)c3c(c(O)c1C2=O)C[C@@](O)(C(=O)CO)C[C@@H]3O[C@H]1C[C@H](N)[C@H](O)[C@H](C)O1", "note": "[Doxorubicin, reference compound]", "values": [{"measurement": "EC50", "setting": "SK-OV-3", "result": 47, "unit": "nM"}, {"measurement": "EC50", "setting": "SK-MEL-2", "result": 16, "unit": "nM"}, {"measurement": "Body weight Change Day 1", "setting": "[1]; [5]", "result": "100.0 ± 0.0", "unit": "%"}, {"measurement": "Body weight Change Day 3", "setting": "[1]; [5]", "result": "105.0 ± 4.1", "unit": "%"}, {"measurement": "Body weight Change Day 7", "setting": "[1]; [5]", "result": "103.9 ± 5.5", "unit": "%"}, {"measurement": "Body weight Change Day 9", "setting": "[1]; [5]", "result": "100.5 ± 4.6", "unit": "%"}, {"measurement": "Body weight Change Day 11", "setting": "[1]; [5]", "result": "96.4 ± 3.5", "unit": "%"}, {"measurement": "Body weight Change Day 14", "setting": "[1]; [5]", "result": "85.1 ± 1.8", "unit": "%"}, {"measurement": "EC50", "setting": "A549", "result": 13, "unit": "nM"}, {"measurement": "EC50", "setting": "MCF7", "result": 50, "unit": "nM"}, {"measurement": "EC50", "setting": "HCT-15", "result": 25, "unit": "nM"}, {"measurement": "Tumor Weight Day 14", "setting": "[2]; 2 mg/kg intraperitoneal once a day, Day 14", "result": "534.1 ± 87.9", "unit": "mg"}]}
{"smiles": "CC(=O)O[C@H]1C(=O)[C@@]2(C)[C@H]([C@H](OC(=O)c3ccccc3)[C@]3(O)C[C@H](OC(=O)[C@H](O)[C@@H](NC(=O)c4ccccc4)c4ccccc4)C(C)=C1C3(C)C)[C@]1(OC(C)=O)CO[C@@H]1C[C@@H]2O", "note": "[Paclitaxel, reference compound]", "values": [{"measurement": "EC50", "setting": "SK-OV-3", "result": 1.2, "unit": "nM"}, {"measurement": "EC50", "setting": "SK-MEL-2", "result": 0.1, "unit": "nM"}, {"measurement": "Body weight Change Day 1", "setting": "[1]; [6]", "result": "100.0 ± 0.0", "unit": "%"}, {"measurement": "Body weight Change Day 3", "setting": "[1]; [6]", "result": "106.0 ± 1.5", "unit": "%"}, {"measurement": "Body weight Change Day 7", "setting": "[1]; [6]", "result": "99.2 ± 4.0", "unit": "%"}, {"measurement": "Body weight Change Day 9", "setting": "[1]; [6]", "result": "97.1 ± 0", "unit": "%"}, {"measurement": "LD50", "setting": "in vivo; iv", "result": "9 to 13", "unit": "mg/kg"}, {"measurement": "Death Total", "setting": "ICR mice; 4.0 mg/kg", "result": "0/5"}, {"measurement": "Death Total", "setting": "ICR mice; 6.0 mg/kg", "result": "1/5"}, {"measurement": "Test Day (Death) 2", "setting": "ICR mice; 6.0 mg/kg", "result": 1}, {"measurement": "Death Total", "setting": "ICR mice; 9.0 mg/kg", "result": "2/5"}, {"measurement": "Test Day (Death) 5", "setting": "ICR mice; 9.0 mg/kg", "result": 2}, {"measurement": "Death Total", "setting": "ICR mice; 13.0 mg/kg", "result": "4/5"}, {"measurement": "Test Day (Death) 1", "setting": "ICR mice; 13.0 mg/kg", "result": 2}, {"measurement": "Test Day (Death) 2", "setting": "ICR mice; 13.0 mg/kg", "result": 2}, {"measurement": "Death Total", "setting": "ICR mice; 20.0 mg/kg", "result": "5/5"}, {"measurement": "Test Day (Death) 1", "setting": "ICR mice; 20.0 mg/kg", "result": 5}, {"measurement": "EC50", "setting": "A549", "result": 0.3, "unit": "nM"}, {"measurement": "EC50", "setting": "MCF7", "result": 0.9, "unit": "nM"}, {"measurement": "EC50", "setting": "HCT-15", "result": 0.1, "unit": "nM"}]}
